# Reference: patent US20220280644A1, “"TRPswitch" - A STEP FUNCTION CHEMO-OPTOGENETIC LIGAND” (UNIVERSITY OF UTAH RESEARCH FOUNDATION, priority 2019, published 2022)
# Key:
# zebrafish Trpa1b = assay: Whole-cell patch-clamp of HEK293T cells expressing zebrafish Trpa1b; assay type: cell-based
# Procedure: Immortalized HEK293T cells or human colonic fibroblast cells (CCD-18Co; ATCC) were used. HEK293T cells were plated on […] cover slips and transiently transfected with 10 μg of Trpa1b plasmid (pCMV-zTrpa1b-FLAG) (SEQ ID NO:3) and 5 μg of mNeonGreen cDNA (Allele Biotechnology), then grown in a 6 cm plate for 24-48 h. CCD-18Co were cultured in Eagle's minimal essential medium with 10% FBS, 1× penicillin and streptomycin. CCD-18Co cells were plated on 12 mm cover slips and transiently transfected with 5 μg of zTrpa1b plasmid (pCMV-zTrpa1b-FLAG) together with 5 μg of mNeonGreen cDNA (Allele Biotechnology), then grown in a […] plate for 48-72 h. After this time, the cover slips were transferred to a recording chamber containing an extracellular solution composed of 145 mM sodium gluconate, 4 mM KCl, 3 mM MgCl2, 10 mM D-glucose, 10 mM HEPES; pH 7.4 adjusted with NaOH. The internal solution contained 122 mM cesium methane sulfonate, 1.8 mM MgCl2, 9 mM EGTA, 14 mM creatine phosphate (sodium salt), 4 mM Mg-ATP, 0.3 mM Na-GTP, 10 mM HEPES, pH 7.2 adjusted with CsOH. Borosilicate glass pipettes with a resistance of 3-5 MO were used. Whole cell currents were measured on an Axopatch 200B amplifier (Molecular De-vices) under the control of pClamp software. Signals were digitized through a Digidata1550B interface (Molecular Devices). Currents were filtered at 5 kHz (lowpass, Bessel) and sampled at 10 kHz prior to analysis with Clampfit software (Molecular Devices). All the plots and statistical tests were performed on Excel (Microsoft corp.). Basal Trpa1b whole cell currents were measured with a ramp protocol (˜100 to +100 mV, at a holding potential of 0 mV). Photoactive compounds were perfused into the recording chamber and a fluorescent light generated by mercury vapor short arc (U-HGLGPS, OLYMPUS) filtered through an ET-ECFP 434/17 nm filter and through a ET-mCherry 560 nm filter (Chroma Technology) was switched “on” and “off” for 10 s. All experiments were performed at room temperature. The p values were calculated using a two-tailed, paired Student's t-test.
# endogenous human TRPA1 = molecular target: T1, endogenous human TRPA1 (Homo sapiens, UniProt O75762); assay: Whole cell current in untransfected CCD-18Co cells; assay type: cell-based; details: without expression of zTrpa1b, violet and green light
# T1 construct: human colonic fibroblast cells, CCD-18Co, which express human TRPA1 endogenously; endogenous in cells; host or cells: CCD-18Co (ATCC), untransfected
# Procedure: Immortalized HEK293T cells or human colonic fibroblast cells (CCD-18Co; ATCC) were used. HEK293T cells were plated on […] cover slips and transiently transfected with 10 μg of Trpa1b plasmid (pCMV-zTrpa1b-FLAG) (SEQ ID NO:3) and 5 μg of mNeonGreen cDNA (Allele Biotechnology), then grown in a 6 cm plate for 24-48 h. CCD-18Co were cultured in Eagle's minimal essential medium with 10% FBS, 1× penicillin and streptomycin. CCD-18Co cells were plated on 12 mm cover slips and transiently transfected with 5 μg of zTrpa1b plasmid (pCMV-zTrpa1b-FLAG) together with 5 μg of mNeonGreen cDNA (Allele Biotechnology), then grown in a […] plate for 48-72 h. After this time, the cover slips were transferred to a recording chamber containing an extracellular solution composed of 145 mM sodium gluconate, 4 mM KCl, 3 mM MgCl2, 10 mM D-glucose, 10 mM HEPES; pH 7.4 adjusted with NaOH. The internal solution contained 122 mM cesium methane sulfonate, 1.8 mM MgCl2, 9 mM EGTA, 14 mM creatine phosphate (sodium salt), 4 mM Mg-ATP, 0.3 mM Na-GTP, 10 mM HEPES, pH 7.2 adjusted with CsOH. […] Whole cell currents were measured on an Axopatch 200B amplifier (Molecular De-vices) under the control of pClamp software. […] Basal Trpa1b whole cell currents were measured with a ramp protocol (˜100 to +100 mV, at a holding potential of 0 mV). […] The p values were calculated using a two-tailed, paired Student's t-test.
# [1] = system: larvae that lack exogenous expression of Trpa1b in cardiomyocytes; assay: Heartbeat experiment in larvae that lack exogenous expression of Trpa1b in cardiomyocytes; assay type: in vivo, zebrafish; details: no exogenous Trpa1b in cardiomyocytes
# [2] = system: zebrafish Trpa1b (zTrpa1b); assay: Rescue experiment, Trpa1b−/− embryos re-expressing zTrpa1b in Rohon-beard neurons; assay type: in vivo; details: 20 μM, motion within 5 s after 1 s WL3
# Procedure: (§1) For Trpa1b ohnolog and paralog rescue experiments, Trpa1b^−/− embryos were injected with ngn1:zTrpa1b-2A-mCherry (partial plasmid sequence in SEQ ID NO:5), ngn1:zTrpa1a-2A-mCherry, ngn1:hTRPA1-2A-EGFP or ngn1:mTRPA1-2A-mCherry at the 1-cell stage for mosaic Rohon-beard neuron expression. Embryos were screened at 2 dpf for fluorescent expression in Rohon-beard neurons, incubated with 20 μM TRPswitch-B for 1 hr and decapitated posterior to the eyes right before experiments. NA 0.25 5× objective and 1 s WL3 light illumination was used.
# (§2) To test the potential cross activity of TRPswitch-B on the zebrafish ohnolog Trpa1a and on mammalian orthologs, zebrafish Trpa1a, mouse TRPA1 or human TRPA1 were transiently re-expressed in the Rohon-beard neurons of mutant Trpa1b^−/− zebrafish and performed light-induced motion response experiments in the presence of TRPswitch-B. Rescue experiments were performed in Trpa1b^−/− zebrafish with transient mosaic re-expression of zebrafish Trpa1b (zTrpa1b), zebrafish Trpa1a (zTrpa1a), mouse TRPA1 (mTRPA1) or human TRPA1 (hTRAP1) in Rohon-beard neurons. Embryos were pre-treated with 20 μM TRPswitch-B and decapitated right before light stimulation to eliminate the light response mediated by the retina (Table 5). […]
# Trpa1b−/− embryos = assay: Rescue experiment, Trpa1b−/− embryos without re-expression; assay type: in vivo, zebrafish; details: 20 μM, motion within 5 s after 1 s WL3
# Procedure: as §1, §2
# T1 sequence (O75762 whole entry): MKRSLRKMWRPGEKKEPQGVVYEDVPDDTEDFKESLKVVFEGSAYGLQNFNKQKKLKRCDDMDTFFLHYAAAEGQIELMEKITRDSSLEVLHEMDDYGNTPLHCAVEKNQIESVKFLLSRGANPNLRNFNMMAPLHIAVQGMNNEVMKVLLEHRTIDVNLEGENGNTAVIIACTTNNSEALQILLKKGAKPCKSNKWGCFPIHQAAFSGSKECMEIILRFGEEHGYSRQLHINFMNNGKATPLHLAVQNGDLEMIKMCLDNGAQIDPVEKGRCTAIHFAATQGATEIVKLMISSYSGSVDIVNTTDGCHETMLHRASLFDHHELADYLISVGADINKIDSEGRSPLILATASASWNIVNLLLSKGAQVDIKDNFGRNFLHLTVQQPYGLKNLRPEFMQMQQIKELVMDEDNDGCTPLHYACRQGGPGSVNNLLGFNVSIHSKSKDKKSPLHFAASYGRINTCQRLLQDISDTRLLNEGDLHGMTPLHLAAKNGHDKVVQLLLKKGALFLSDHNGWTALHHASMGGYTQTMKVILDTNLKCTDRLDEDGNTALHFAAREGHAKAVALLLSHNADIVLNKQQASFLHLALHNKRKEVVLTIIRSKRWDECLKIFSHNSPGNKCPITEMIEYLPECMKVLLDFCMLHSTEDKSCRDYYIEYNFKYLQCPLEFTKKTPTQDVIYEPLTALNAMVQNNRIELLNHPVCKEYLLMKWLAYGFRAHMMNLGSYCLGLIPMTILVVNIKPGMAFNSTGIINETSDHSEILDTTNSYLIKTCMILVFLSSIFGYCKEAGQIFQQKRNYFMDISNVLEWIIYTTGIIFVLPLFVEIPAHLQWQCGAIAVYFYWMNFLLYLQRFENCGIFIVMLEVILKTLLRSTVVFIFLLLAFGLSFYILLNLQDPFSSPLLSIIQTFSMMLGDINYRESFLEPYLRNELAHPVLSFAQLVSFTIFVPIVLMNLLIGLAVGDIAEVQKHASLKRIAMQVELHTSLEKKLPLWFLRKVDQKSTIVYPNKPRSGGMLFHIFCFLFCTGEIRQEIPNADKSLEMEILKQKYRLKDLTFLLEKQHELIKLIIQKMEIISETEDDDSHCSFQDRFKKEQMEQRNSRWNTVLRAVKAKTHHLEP
compound,measurement,setting,value
"Cc1nn(C)c(C)c1/N=N/c1ccc(NC(=O)c2cccs2)cc1NC(=O)c1cccs1 [Compound 9, (E)-N,N′-(4-((1,3,5-trimethyl-1H-pyrazol-4-yl)diazenyl)-1,3-phenylene)bis(thiophene-2-carboxamide)]",current density fold increment after subsequent pulse of green light,zebrafish Trpa1b; +100 mV,1.26±0.33 fold
same,current density fold increment upon violet light illumination,zebrafish Trpa1b; +100 mV,2.12±0.47 fold
same,current density fold increment after subsequent pulse of green light,zebrafish Trpa1b; −100 mV,1.41±0.38 fold
same,current density fold increment upon violet light illumination,zebrafish Trpa1b; −100 mV,2.27±0.38 fold
same,light induced photocurrent / cross reaction with endogenous human TRPA1,endogenous human TRPA1,does not cross react
same,heartbeat switching with light illumination,[1],negative results
same,% response,[2],38.5%
same,% response,Trpa1b−/− embryos,0%
